Laboratory results reported in publication PMC5193075 (The Journal of Pharmacology and Experimental Therapeutics, 2017).

Tests used:
[1] = system: cryopreserved human primary hepatocytes; experiment: Drug depletion; conditions: for interdonor variability in unbound intrinsic clearance (IDV): individual-donor data; for interdonor variability in unbound intrinsic clearance (IDV) / interwell variability in unbound intrinsic clearance (IWV): parentheses = relative standard error; for CLint(u) ratio individual-donor/pooled hepatocytes: parentheses = 95% confidence intervals (Fieller's theorem)
[2] = Unbound drug fraction in cell culture medium by rapid equilibrium dialysis; type: in vitro ADME; conditions: bovine, bovine serum albumin-containing cell culture medium
[3] = Prediction of in vivo hepatic clearance from liver MPS data; set-up: species or system human
[4] = individual-donor data (within donor)

Row | Compound | interdonor variability in unbound intrinsic clearance (IDV) [1] | fraction unbound [2] | interwell variability in unbound intrinsic clearance (IWV) [1, 4] | interdonor variability in unbound intrinsic clearance (IDV) ([1]; listed as phenacetin) [CV%] | CLint(u) ratio individual-donor/pooled hepatocytes [1] | interwell variability in unbound intrinsic clearance (IWV) ([1]; pooled hepatocytes data) | fold-error (underprediction) of in vivo hepatic clearance ([3]; parallel tube (PT) liver model) [fold] | fold-error (underprediction) of in vivo hepatic clearance ([3]; well stirred (WS) liver model) [fold]
1 | O=C(O)Cc1ccccc1Nc1c(Cl)cccc1Cl [Diclofenac, diclofenac] | 36.2% (71.5%) CV% | 0.13 | – | – | – | – | – | –
2 | CC(C)Cc1ccc(C(C)C(=O)O)cc1 (stereo not shown) [Ibuprofen, ibuprofen] | – | 0.31 | – | – | – | – | – | –
3 | CCOc1ccc(NC(C)=O)cc1 [Phenacetin, phenacetin] | 24.1% (80.4%) CV% | 0.98 | 26.1% (65.2%) CV% | 24.1 | 0.92 (0.61, 1.47) | 30.7% (41.5%) CV% | 1.7 | 2.1
4 | C[C@]12C=CC(=O)C=C1CC[C@@H]1[C@@H]2[C@@H](O)C[C@@]2(C)[C@H]1CC[C@]2(O)C(=O)CO [Prednisolone, prednisolone] | 29.3% (58.1%) CV% | 0.94 | 21.5% (70.0%) CV% | – | 0.89 (0.63, 1.16) | – | – | –
5 | CC(C)NCC(O)COc1cccc2ccccc12 (stereo not shown) [Propranolol, propranolol] | – | 0.98 | – | – | – | – | – | –
